The record followed here is ChEMBL document CHEMBL1152033, “Spiro-piperidine non-peptide neurokinin-1 receptor antagonists” (Bioorg Med Chem Lett, 1995).

For the experiment, the target named is Substance-P receptor (Homo sapiens, UniProt P25103). Description: Binding affinity measured by displacement of tritiated radiolabeled substance P from cloned human NK1 receptor expressed in CHO cell membranes.
Substance-P receptor, sequence (P25103 whole entry): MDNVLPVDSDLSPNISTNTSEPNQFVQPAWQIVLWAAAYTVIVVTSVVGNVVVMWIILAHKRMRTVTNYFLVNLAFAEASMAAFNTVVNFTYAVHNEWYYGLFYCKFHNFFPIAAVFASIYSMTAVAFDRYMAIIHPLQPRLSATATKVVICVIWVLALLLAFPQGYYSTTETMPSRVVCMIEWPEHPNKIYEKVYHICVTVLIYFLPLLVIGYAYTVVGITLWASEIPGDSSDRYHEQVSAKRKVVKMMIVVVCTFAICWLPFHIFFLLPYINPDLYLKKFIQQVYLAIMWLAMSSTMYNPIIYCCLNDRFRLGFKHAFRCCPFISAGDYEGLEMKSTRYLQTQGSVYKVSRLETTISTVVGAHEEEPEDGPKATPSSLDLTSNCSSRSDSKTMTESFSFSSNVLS

On to `COc1ccccc1CN[C@H]1CCCN[C@@]12CCc1ccccc12`, for which the inhibition constant Ki was more than 1 µM.

`COc1ccccc1CN[C@H]1CCCN[C@]12CCc1ccccc12` gave a Ki of 0.0398 µM. This counts as double-digit nanomolar.

For orientation: Ki means a dissociation constant, usually derived from enzyme kinetics or from competition with a known ligand. Read a high Ki as a looser hold on the target.
